Results from patent publication US20120107903A1 (priority 2010, published 2012).

How the values were obtained:
[1] = target: Burkholderia cepacia KS1 glucose dehydrogenase (α-subunit SEQ ID NO:3), variant QYA (QY), 326Gln+365Tyr (Burkholderia cepacia, UniProt Q8GQE7, S326Q/S365Y); format: biochemical; settings: pH 7
[2] = target: Burkholderia thailandensis TXDOH hypothetical protein BthaT_07876 (SEQ ID NO:8), variant QYY, S324Q/S363Y/A470Y (Burkholderia thailandensis, UniProt Q2T5D8, A470Y/S324Q/S363Y)
[3] = target: Burkholderia cepacia KS1 glucose dehydrogenase (α-subunit SEQ ID NO:3), variant QYR, 326Gln+365Tyr+472Arg (Burkholderia cepacia, UniProt Q8GQE7, A472R/S326Q/S365Y); format: biochemical; settings: pH 7
[4] = target: Burkholderia cepacia KS1 glucose dehydrogenase (α-subunit SEQ ID NO:3), variant QYY, 326Gln+365Tyr+472Tyr (Burkholderia cepacia, UniProt Q8GQE7, A472Y/S326Q/S365Y); format: biochemical; settings: pH 7
[5] = target: Ralstonia solanacearum IPO1609 transmembrane dehydrogenase, wild type, SEQ ID NO:10 (Ralstonia solanacearum, UniProt A0ABF7REW7)
[6] = target: Ralstonia pickettii 12D FAD dependent oxidoreductase (SEQ ID NO:9), variant QYY, S327Q/S366Y/A473Y (Ralstonia pickettii, UniProt A0ABM9ITV6, A473Y/S327Q/S366Y); format: biochemical
[7] = target: Ralstonia pickettii 12D FAD dependent oxidoreductase, wild type, SEQ ID NO:9 (Ralstonia pickettii, UniProt A0ABM9ITV6)
[8] = target: Burkholderia cenocepacia J2315 putative oxidoreductase (SEQ ID NO:7), variant QYY, S326Q/S365Y/A472Y (Burkholderia cenocepacia, UniProt B4ELB3, A472Y/S326Q/S365Y); format: biochemical; settings: read-out: Km (Mal)
[9] = tested on: OC[C@H]1O[C@H](O[C@H]2[C@H](O)[C@@H](O)C(O)O[C@@H]2CO)[C@H](O)[C@@H](O)[C@@H]1O; experiment: cells, lysate or membranes named; settings: pH 7.0
[10] = tested on: OC[C@H]1OC(O)[C@H](O)[C@@H](O)[C@@H]1O; experiment: cells, lysate or membranes named

Q: Which results are given for OC[C@H]1OC(O)[C@H](O)[C@@H](O)[C@@H]1O (some centres unmarked) [Glucose, glucose]?
A: Vmax (Glc.) [1]: Vmax (Glc.) = 149.3 U/mg protein; Vmax (Glc) [2]: 48.8 U/mL; Vmax (Glc.) [3]: Vmax (Glc.) = 93.5 U/mg protein; Vmax (Glc.) [4]: Vmax (Glc.) = 131.6 U/mg protein; Vmax (Glc) [5]: 0.14 U/mL; Vmax (Glc) [6]: 1.62 U/mL

Q: How did the “Vmax (Mal)” value [7] turn out when OC[C@H]1O[C@H](O[C@H]2[C@H](O)[C@@H](O)C(O)O[C@@H]2CO)[C@H](O)[C@@H](O)[C@@H]1O (some centres unmarked) [Mal, maltose] was run?
A: 0.94 U/mL

Q: And the Km [8]?
A: > 100000 µM

Q: And the “Vmax (Mal)” value [5]?
A: 0.14 U/mL

Q: How did the Km [9] turn out when (Burkholderia cenocepacia J2315) was run?
A: 1300 µM

Q: And the Vmax [9]?
A: 1.87 U/mL

Q: And the Km ([10]; pH 7.0)?
A: 110 µM

Q: What about the Vmax ([10]; pH 7.0) of the same molecule?
A: 2.05 U/mL

Q: For (Burkholderia cepacia), which Km ([10]; pH 7.5) is on record?
A: 1350 µM

Q: What about the Vmax ([10]; pH 7.5) of the same molecule?
A: 100 µmol/min/mg

Q: For (Ralstonia pickettii), which Km [9] is on record?
A: 2020 µM

Q: (Ralstonia solanacearum IPO1609) was tested. Which Km [9] did it give?
A: 2640 µM
